Patent publication US5272178A, “Compounds of cyclic phenolic thioethers which are useful in stimulating and inhibiting superoxide generation” (G. D. Searle & Co., priority 1993, dated 1993)

What was measured:
[1] = system: human neutrophils; test: Human neutrophil superoxide generation (FMLP-stimulated, cytochrome C reduction); assay type: cell-based; details: for IC50: read-out: FMLP Induced Superoxide Generation, Inhibition IC50
Method: The compounds of the invention are evaluated with respect to superoxide modulating activity according to the following assay procedure:
Human neutrophil superoxide generation: Superoxide generation by formyl-methionyl-leucyl-phenylalanine (FMLP)-stimulated neutrophils was quantitated by the reduction of cytochrome C (Badwey, J. A., Curnutte, J. T. and Karnovsky, M. L., cis-Polyunsaturated fatty acids induce high levels of superoxide production by human neutrophils. J. Biol. Chem. 256: 12640-12643, 1981.) To 5 million neutrophils in 2.85 ml of Krebs-Ringer phosphate buffer, pH 7.2, 50 ul of inhibitor (in 10% DMSO/buffer), and 50 ul ferricytochrome C (5 mM, stock) were added and preincubated for 3 minutes at 37° C. Absorption measurements at 550 nm were recorded at start of preincubation. Fifty ul FMLP (6 uM, stock) was added to initiate reaction. A plateau was reached within 3 minutes and this reading minus the initial reading (before addition of FMLP) was used to calculate nanomoles of superoxide generated based on a molar extinction coefficient of 2.1×10^4 cm^-1 mole^-1.
Isolation of human neutrophils: Human neutrophils were isolated from freshly drawn blood of healthy donors. Two ml of 5% dextran (MW 200,000-300,000) in saline was added to 10 ml aliquots of blood, mixed and placed upright for 45 min. at 37° C. Approx. 8-10 ml of the plasma-white cell suspension from the dextran sedimentation was layered on 3 ml of Ficol-paque in a 15 ml tube and centrifuged at 400 g for 30 min. The supernate, containing plasma and platelets, was discarded by aspiration, and the pellet, containing predominantly neutrophils, was resuspended in 1 ml saline. The suspension was transferred to a clean tube, and pooled with other aliquots of blood treated similarly. The pooled suspension was centrifuged at 350 g for 5 min. and supernate discarded. The pellet was resuspended in 5 ml of 0.05% NaCl with a plastic Pasteur pipette for 25 seconds to lyse contaminating red cells, then 5 ml of 1.75% NaCl added to regain isotonicity. The red cell lysing procedure was repeated, the cells suspended in appropriate buffer (depending on assay) and counted.

[2] = target: T1, 5-lipoxygenase (Rattus norvegicus, UniProt P12527); test: Inhibition of 5-lipoxygenase, in vitro (5-HETE synthesis, RBL-1 100,000 x g supernatant); assay type: biochemical; details: for activation at 100 µM / activation at 10 µM: stimulation, read-out: 5-Lipoxygenase, Stimulated %
T1 construct: The 100,000 x g supernatant fraction of Rat Basophilic Leukemia Cell Homogenate (RBL-1); endogenous in cells; host or cells: RBL-1 (rat basophilic leukemia) cells, 100,000 x g supernatant of homogenate
T1 sequence (P12527 1-673): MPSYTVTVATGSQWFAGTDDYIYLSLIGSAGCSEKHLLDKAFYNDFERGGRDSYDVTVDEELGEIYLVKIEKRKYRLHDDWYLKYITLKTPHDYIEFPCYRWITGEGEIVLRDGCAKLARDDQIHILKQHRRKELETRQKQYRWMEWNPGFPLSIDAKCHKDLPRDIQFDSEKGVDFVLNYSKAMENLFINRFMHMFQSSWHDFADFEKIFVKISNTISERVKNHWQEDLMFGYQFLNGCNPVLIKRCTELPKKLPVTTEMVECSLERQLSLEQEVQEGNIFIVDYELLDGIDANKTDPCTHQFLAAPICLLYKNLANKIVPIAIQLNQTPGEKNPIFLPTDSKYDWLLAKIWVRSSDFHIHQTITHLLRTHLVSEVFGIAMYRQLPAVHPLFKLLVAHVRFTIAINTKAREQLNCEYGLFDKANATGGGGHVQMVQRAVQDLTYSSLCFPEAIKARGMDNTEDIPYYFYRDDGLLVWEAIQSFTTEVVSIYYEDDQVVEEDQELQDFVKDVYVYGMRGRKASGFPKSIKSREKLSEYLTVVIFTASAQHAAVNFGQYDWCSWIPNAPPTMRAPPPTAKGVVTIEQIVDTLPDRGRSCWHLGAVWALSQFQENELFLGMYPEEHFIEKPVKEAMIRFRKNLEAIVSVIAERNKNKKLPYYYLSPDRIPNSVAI
Method: The compounds of the invention are evaluated with respect to 5-lipoxygenaseinhibition according to the following assay procedure.
Inhibition of 5-lipoxygenase, in vitro: anti-inflammatory, anti-allergy activities.
The 100,000 x g supernatant fraction of Rat Basophilic Leukemia Cell Homogenate (RBL-1) serves as a 5-lipoxygenase enzyme source. The enzyme is incubated with [1-^14 C)-arachidonic acid and Ca++ in the presence and absence of test compound. The product of 5-lipoxygenase, 5-hydroxyeicosatetraenoic acid (5-HETE), is separated by thin-layer chromatography an measured by radioactivity. A compound inhibiting 5-HETE synthesis by 30% or more is considered active at that concentration.
For comparison the compound of Formula XX, a known 5-lipoxygenase inhibitor described in U.S. Pat. No. 4,755,524 was used. [drawing 13]

[3] = target: T2, Sheep Seminal Vesicle Microsome Cyclooxygenase (Ovis aries, UniProt P05979); test: Inhibition of Sheep Seminal Vesicle Microsome Cyclooxygenase; assay type: biochemical
T2 construct: Lyophilized ovine microsome (approx. 1 mg) suspended in 2.9 ml Tris-HCl buffer, pH 8.2, containing 0.7 mM phenol were used as source; from tissue; host or cells: sheep seminal vesicle microsomes (lyophilized)
T2 sequence (P05979 25-600): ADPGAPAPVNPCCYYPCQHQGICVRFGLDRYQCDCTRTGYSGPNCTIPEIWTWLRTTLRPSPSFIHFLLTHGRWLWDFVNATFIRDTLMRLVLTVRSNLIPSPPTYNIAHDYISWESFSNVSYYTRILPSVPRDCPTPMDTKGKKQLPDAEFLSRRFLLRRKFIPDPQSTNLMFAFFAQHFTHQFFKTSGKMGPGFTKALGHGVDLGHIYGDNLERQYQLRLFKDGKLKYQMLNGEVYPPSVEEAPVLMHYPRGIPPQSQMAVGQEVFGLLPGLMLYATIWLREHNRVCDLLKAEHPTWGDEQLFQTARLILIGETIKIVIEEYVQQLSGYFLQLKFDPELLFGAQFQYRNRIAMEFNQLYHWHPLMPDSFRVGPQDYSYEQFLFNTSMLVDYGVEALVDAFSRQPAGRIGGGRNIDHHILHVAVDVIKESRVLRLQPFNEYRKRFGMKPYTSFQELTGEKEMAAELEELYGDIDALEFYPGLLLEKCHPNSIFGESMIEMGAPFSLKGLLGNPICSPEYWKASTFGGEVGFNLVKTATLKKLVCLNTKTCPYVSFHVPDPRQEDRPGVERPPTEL
Method: The compounds of the present invention evaluated with respect to cyclooxygenase inhibition according to the following assay procedure. Inhibition of Sheep Seminal Vesicle Microsome Cyclooxygenase The assay was based on oxygen consumption during conversion of arachidonic acid to prostaglandin G2 catalyzed by cyclooxygenase Biochem. 11:3276-3285 (1972). Lyophilized ovine microsome (approx. 1 mg) suspended in 2.9 ml Tris-HCl buffer, pH 8.2, containing 0.7 mM phenol were used as source of arachidonate cyclooxygenase. The inhibitor, 50 μl in DMSO, was added and the mixture preincubated for 5 minutes at 37° C. Fifty μl of arachidonic acid (final conc. 50 μM) was added to start the reaction. The slopes of the initial rates of oxygen uptake, in the presence and absence of inhibitor, were compared to determine reaction inhibition. Percent inhibition was computed using the following formula: [formula]

[4] = Homo sapiens, Neutrophil, % above control, read-out: FMLP Induced Superoxide Generation, Stimulation, % > control

COC(=O)CS[C@@H]1CCCC[C@H]1Sc1cc(C(C)(C)C)cc(C(C)(C)C)c1 (relative stereo) [Example 4]
activation at 1 µM ([1]; Homo sapiens, Neutrophil, 1 μM, % above control, read-out: FMLP Induced Superoxide Generation, Stimulation, % > control): 67%
activation at 10 µM [1, 4]: 133%
activation at 100 µM ([1]; Homo sapiens, Neutrophil, 100 μM, % above control, read-out: FMLP Induced Superoxide Generation, Stimulation, % > control): 167%

CC(C)(C)c1cc(S[C@@H]2CCCC[C@H]2SCC(=O)O)cc(C(C)(C)C)c1 (relative stereo) [Example 5, trans-[[2-[[3,5-bis(1,1-dimethylethyl)phenyl]thio]cyclohexyl]thio]acetic acid]
IC50 [2]: 100 µM
IC50 ([1]; Homo sapiens, Neutrophil): 1.1 µM

O=C(O)CS[C@@H]1CCCC[C@H]1Sc1ccccc1 (relative stereo) [Example 7]
5-lipoxygenase inhibition (statement in words) [2]: did not inhibit either 5-lipoxygenase or cyclooxygenase
activation at 100 µM ([2]; at 10^-4 M): 45%
activation at 10 µM ([2]; at 10^-5 M): 27%
cyclooxygenase inhibition (statement in words) [3]: did not inhibit either 5-lipoxygenase or cyclooxygenase
Cyclooxygenase Inhibition (in words) ([3]; at 100 μM): Inactive
superoxide generation (statement in words) [1]: did inhibit superoxide generation
IC50 ([1]; Homo sapiens, Neutrophil): 50 µM

CC(C)(C)c1cccc(S[C@@H]2CCCC[C@H]2SCC(=O)O)c1 (relative stereo) [Example 11]
activation at 100 µM ([2]; at 10^-4 M): 2.5%
activation at 10 µM ([2]; at 10^-5 M): 3.2%
IC50 [3]: 2.9 µM
IC50 ([1]; Homo sapiens, Neutrophil): 4.8 µM

O=C(O)CS[C@@H]1CCCC[C@H]1Sc1cccc(-c2ccccc2)c1 (relative stereo) [Example 15]
inhibition at 100 µM ([2]; at 10^-4 M, inhibition, read-out: 5-Lipoxygenase, Inhibited %): 21.3%
inhibition at 10 µM ([2]; at 10^-5 M, inhibition, read-out: 5-Lipoxygenase, Inhibited %): 14.9%
IC50 [3]: 64 µM
IC50 ([1]; Homo sapiens, Neutrophil): 2.8 µM

CN(CCc1ccccn1)C(=O)CS[C@@H]1CCCC[C@H]1Sc1cc(C(C)(C)C)cc(C(C)(C)C)c1 (relative stereo) [Example 16]
5-lipoxygenase inhibition (statement in words) [2]: inhibited 5-lipoxygenase
IC50 [2]: 100 µM
superoxide generation (statement in words) [1]: stimulated superoxide generation
activation at 10 µM [1, 4]: 33%
activation at 25 µM ([1]; Homo sapiens, Neutrophil, 25 μM, % above control, read-out: FMLP Induced Superoxide Generation, Stimulation, % > control): 83%
activation at 50 µM ([1]; Homo sapiens, Neutrophil, 50 μM, % above control, read-out: FMLP Induced Superoxide Generation, Stimulation, % > control): 100%

CC(C)(C)c1cc(S[C@@H]2CCCC[C@H]2OCC(=O)O)cc(C(C)(C)C)c1 (relative stereo) [Example 17]
IC50 [2]: > 100 µM
IC50 ([1]; Homo sapiens, Neutrophil): 3.4 µM

C[C@H](Sc1cc(C(C)(C)C)c(O)c(C(C)(C)C)c1)[C@@H](C)OCC(=O)O (relative stereo) [Formula XX, reference compound]
5-lipoxygenase inhibition (statement in words) [2]: inhibited both superoxide generation and 5-lipoxygenase
superoxide generation (statement in words) [1]: inhibited both superoxide generation and 5-lipoxygenase
IC50 ([1]; Homo sapiens, Neutrophil): 11 µM
